Target: PHGDH (Homo sapiens (Human), UniProt O43175)
Experiment: PHGDH inhibition, coupled assay with PSAT1/PSPH and diaphorase/resazurin readout
Format: biochemical
Conditions: Table E9; mixture with PSAT1, PSPH; diaphorase/resazurin reporter
Description: Compounds of the invention were assayed for inhibition of the activity phosphoglycerate dehydrogenase (PHGDH). The compounds were assayed in a mixture comprising PHGDH, PSAT1, PSPH, NADH, and glutamate. Diaphorase and resazurin were used as a fluorescent reporter system.
In this endogenous pathway coupled assay, the production of NADH by PHGDH was measured through the diaphorasemediated reduction of resazurin (See, e.g., Chakraborty, S., Sakka, M., Kimura, T. & Sakka, K. “Characterization of a dihydrolipoyl dehydrogenase having diaphorase activity of Clostridium kluyveri.” BioscL Biotechnol. Biochem. 72, 982-988 (2008)).
PHGDH assay buffer contained 50 mM TEA pH 8.0, 10 mM MgCl2, 0.05% BSA, and 0.01% Tween-20. PHGDH enzyme buffer consisted of assay buffer with 20 nM PHGDH and 0.2 mg/mL diaphorase. PHGDH substrate buffer contained 0.3 mM NAD 1.25 mM glutamate, 0.1 mM 3-phosphoglycerate, 0.2 mM resazurin, 1 μM PSAT1, and 1 μM PSPH. qHTS was performed in 1536-well plates dispensed with a BioRAPTR FRD. Each well contained equal volumes of substrate buffer and assay buffer. Plates were read at 0 minutes and 20 minutes at room temperature with a ViewLux uHTS Microplate Imager (PerkinElmer). Follow-up assays were performed in black 384-well plates (Greiner) in 20 μL of enzyme buffer to which compounds were added in dose-response with an HP D300 digital dispenser (Hewlett-Packard), followed by addition of 20 μL of substrate buffer. Plates were incubated at room temperature (25° C.) and read at 0 and 20 minutes with a Spectramax M5 plate reader (Molecular Devices) in fluorescence intensity mode with a λex=550 nm and λem=600 nm (emission cutoff=590 nm).

Sequence of PHGDH (O43175 whole entry): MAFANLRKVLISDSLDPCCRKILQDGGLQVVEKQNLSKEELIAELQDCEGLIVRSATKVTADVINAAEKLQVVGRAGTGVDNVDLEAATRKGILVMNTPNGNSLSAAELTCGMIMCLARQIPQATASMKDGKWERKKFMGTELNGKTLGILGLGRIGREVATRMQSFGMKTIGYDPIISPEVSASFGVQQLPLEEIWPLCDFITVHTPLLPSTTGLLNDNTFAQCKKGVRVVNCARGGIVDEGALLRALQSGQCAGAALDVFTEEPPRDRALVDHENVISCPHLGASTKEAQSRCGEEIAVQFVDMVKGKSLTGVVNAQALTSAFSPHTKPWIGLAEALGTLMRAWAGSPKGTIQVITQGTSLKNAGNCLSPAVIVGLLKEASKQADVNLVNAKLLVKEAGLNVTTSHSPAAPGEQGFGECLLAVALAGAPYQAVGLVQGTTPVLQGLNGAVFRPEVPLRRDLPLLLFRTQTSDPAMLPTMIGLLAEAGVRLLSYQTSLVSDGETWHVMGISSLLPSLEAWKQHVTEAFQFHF

Compound | IC50
Cc1ccnc(NC(=S)N2CCN(c3ccc(O)cc3)CC2)c1 [Compound 13] | ≥ 20 µM
Cc1cc(C)nc(NC(=S)N2CCN(c3ccc(F)cc3F)CC2)c1 [Compound 90] | 5 to 10 µM
Cc1cc(C)nc(NC(=S)N2CC3CN(c4ncc(C(F)(F)F)cc4Cl)CC3C2)c1 (stereo not shown) [Compound 225] | 10 to 20 µM
Cc1cc(C)nc(NC(=S)N2CCN(c3nc4ccccc4s3)CC2)c1 [Compound 106] | 10 to 20 µM
Cc1cc(C)nc(NC(=S)N2CCN(c3ccc4ncccc4c3[N+](=O)[O-])CC2)c1 [Compound 124] | 10 to 20 µM
Cc1ccnc(NC(=S)N2CCCc3ccc(C(F)(F)F)cc32)c1 [Compound 60] | ≥ 20 µM
COc1cccc(NC(=S)N2CCN(c3ncc(C(F)(F)F)cc3Cl)CC2)n1 [Compound 195] | < 5 µM
Cc1ccnc(NC(=S)N2CC3CN(c4ncc(C(F)(F)F)cc4Cl)CC3C2)c1 (stereo not shown) [Compound 227] | 10 to 20 µM
COc1ccc(CN2CCN(C(=S)Nc3cc(C)cc(C)n3)CC2)cc1 [Compound 293] | 10 to 20 µM
Cc1ccnc(NC(=S)N2CCN(c3ccc(C#N)cc3)CC2)c1 [Compound 10] | ≥ 20 µM
Cc1ccc(CN2CCN(C(=S)Nc3cc(C)cc(C)n3)CC2)cc1 [Compound 292] | < 5 µM
CSC(Cc1ccc(Cl)cc1)C(=O)Nc1ccc(Cl)cc1C(=O)O (stereo not shown) [Compound 19] | ≥ 20 µM
Cc1cc(C)nc(NC(=S)N2CCN(Cc3ccc(F)cc3)CC2)c1 [Compound 279] | 10 to 20 µM
Cc1cc(C)nc(NC(=S)N2CCN(c3ncccn3)CC2)c1 [Compound 80] | ≥ 20 µM
Cc1ccnc(NC(=S)N2CCc3ccccc3C2)c1 [Compound 51] | ≥ 20 µM
Cc1cccc2nc(NC(=S)N3CCN(c4cccc(C(F)(F)F)c4)CC3)[nH]c12 [Compound 247] | < 5 µM
Cc1cc(C)nc(NC(=S)N2CCN(c3ccc(-c4ccccc4)cc3)CC2)c1 [Compound 133] | ≥ 20 µM
Cc1cc(C)nc(NC(=S)N2CCCC(Nc3ccc(C(F)(F)F)cc3)C2)c1 (stereo not shown) [Compound 252] | < 5 µM
Cc1nc(CN(C)c2ncnc3ccc(-c4ccc5[nH]ncc5c4)cc23)cs1 [Compound 222] | ≥ 20 µM
FC(F)(F)c1cccc(N2CCN(C(=S)Nc3cc[nH]n3)CC2)c1 [Compound 236] | 5 to 10 µM
Cc1cc(C)nc(NC(=S)N2CCN(c3ccc([N+](=O)[O-])cc3Cl)CC2)c1 [Compound 217] | 10 to 20 µM
S=C(Nc1cc(Cl)ccn1)N1CCN(c2cccc(Cl)c2Cl)CC1 [Compound 226] | 10 to 20 µM

Compound | IC50
Cc1cc(C)nc(NC(=S)N2CCN(c3ccc4cn(C)nc4c3)CC2)c1 [Compound 129] | ≥ 20 µM
FC(F)(F)c1cccc(N2CCN(C(=S)Nc3cnccn3)CC2)c1 [Compound 128] | ≥ 20 µM
Cc1cc(C)nc(NC(=S)N2CCN(c3ccc(Cl)cc3[S+](C)(=O)[O-])CC2)c1 [Compound 115] | 10 to 20 µM
Cc1cc(C)nc(NC(=S)N2CCN(c3ccc4occc4c3)CC2)c1 [Compound 164] | 10 to 20 µM
Cc1ccnc(C(=S)N2CCN(c3cccc(C(F)(F)F)c3)CC2)c1 [Compound 62] | ≥ 20 µM
Cc1cc(C)nc(NC(=S)N2CCN(CC(C)(C)C)CC2)c1 [Compound 269] | < 5 µM
Cc1cc(C)nc(NC(=S)N2CCN(Cc3ccc(C(F)(F)F)cc3)C(CO)C2)c1 (stereo not shown) [Compound 294] | 10 to 20 µM
Cc1cc(C)nc(NC(=S)N2CCN(Cc3cccnc3)CC2)c1 [Compound 283] | ≥ 20 µM
COc1ccnc(NC(=S)N2CCN(c3cccc(Cl)c3Cl)CC2)c1 [Compound 180] | 5 to 10 µM
COc1cccc(NC(=S)N2CCN(c3ccccc3C(F)(F)F)CC2)n1 [Compound 193] | < 5 µM
N=C(NC(=S)N1CCN(c2cccc(C(F)(F)F)c2)CC1)c1ccccn1 [Compound 238] | ≥ 20 µM
Cc1cc(C)nc(NC(=S)N2CCN(c3nc4ccccc4o3)CC2)c1 [Compound 105] | 10 to 20 µM
Cc1cc(C)nc(NC(=S)N2CCN(c3ccc(F)c(F)c3)CC2)c1 [Compound 214] | 5 to 10 µM
Cc1ccnc(NC(=S)N2CCN(c3ccccc3C(F)(F)F)CC2)c1 [Compound 41] | 5 to 10 µM
Cc1cc(C)nc(NC(=S)N2CCN(c3cc(Cl)cc(Cl)c3)CC2)c1 [Compound 65] | 5 to 10 µM
COc1cc(OC)cc(N2CCN(C(=S)Nc3cc(C)cc(C)n3)CC2)c1 [Compound 216] | 10 to 20 µM
Cc1cc(C)nc(NC(=S)N2CCN(Cc3ccc(OC(F)(F)F)cc3)CC2)c1 [Compound 296] | < 5 µM
FC(F)(F)c1cccc(N2CCN(C(=S)Nc3cc[nH]n3)CC2)c1 [Compound 237] | ≥ 20 µM
Cc1cc(C)nc(NC(=S)N2CCN(c3cccc(C(F)(F)F)c3)CC2)c1 [Compound 24] | 5 to 10 µM
O=C(Nc1cccc([S+](=O)([O-])Nc2ccccc2F)c1)c1cccs1 [Compound 245] | ≥ 20 µM
Cc1ccnc(N(C)C(=S)N2CCN(c3cccc(C(F)(F)F)c3)CC2)c1 [Compound 52] | ≥ 20 µM
FC(F)(F)c1cc(N2CCN(C(=S)Nc3cc(Cl)ccn3)CC2)cc(C(F)(F)F)c1 [Compound 198] | ≥ 20 µM

Compound | IC50
FC(F)(F)c1cccc(N2CCN(C(=S)Nc3nc[nH]n3)CC2)c1 [Compound 234] | ≥ 20 µM
Cc1cc(C)nc(NC(=S)N2CCN(Cc3ccc(Cl)cc3)CC2)c1 [Compound 280] | 10 to 20 µM
Cc1cc(C)nc(NC(=S)N2CCN(c3nccc(C(F)(F)F)n3)CC2)c1 [Compound 117] | < 5 µM
Cc1cc(C)nc(NC(=S)N2CCN(c3cccc(OC(F)F)c3)CC2)c1 [Compound 135] | < 5 µM
Cc1cc(C)nc(NC(=S)N2CCN(c3ccc(Cl)c(Cl)c3)CC2)c1 [Compound 92] | ≥ 20 µM
CC(Cc1ccccc1)C(=O)Nc1ccc(Cl)cc1C(=O)O (stereo not shown) [Compound 20] | ≥ 20 µM
Cc1cc(C)nc(Nc2nnc(N3CCN(c4cccc(C(F)(F)F)c4)CC3)s2)c1 [Compound 125] | ≥ 20 µM
Cc1cc(C)nc(NC(=S)N2CCN(c3ccc(C(=O)O)cc3)CC2)c1 [Compound 101] | ≥ 20 µM
Cc1ccnc(NC(=S)N2CCN(c3cccc(C(F)(F)F)n3)CC2)c1 [Compound 175] | < 5 µM
Cc1cc(C)nc(NC(=S)N2CCN(C3CCCCC3)CC2)c1 [Compound 253] | 10 to 20 µM
Cc1cc(C)nc(NC(=S)N2CCN(c3ncccc3Cl)CC2)c1 [Compound 79] | 10 to 20 µM
Cc1ccnc(NC(=S)N2CCN(c3ccc(C(F)(F)F)cc3[N+](=O)[O-])CC2)c1 [Compound 174] | 5 to 10 µM
Cc1cc(C)nc(NC(=S)N2CCN(c3cccc([S+](C)[O-])c3)CC2)c1 (stereo not shown) [Compound 139] | ≥ 20 µM
Cc1cc(C)nc(NC(=S)N2CCN(Cc3ccc(C(F)(F)F)cc3)[C@H](C)C2)c1 [Compound 298] | < 5 µM
Cc1cc(C)nc(NC(=S)N2CCN(c3cc(Cl)cc(Cl)n3)CC2)c1 [Compound 207] | ≥ 20 µM
Cc1ccnc(NC(=S)NC2CCCN(c3cccc(C(F)(F)F)c3)C2)c1 (stereo not shown) [Compound 54] | 5 to 10 µM
Cc1ccnc(NC(=S)NC2CN(c3cccc(C(F)(F)F)c3)C2)c1 [Compound 47] | ≥ 20 µM
Cc1cc(C)nc(NC(=S)N2CCN(C(=O)c3ccc(C(F)(F)F)cc3)CC2)c1 [Compound 265] | < 5 µM
Cc1cc(C)nc(NC(=S)N2CCN(c3cccc4ccncc34)CC2)c1 [Compound 149] | 10 to 20 µM
Cc1cc(C)nc(NC(=S)N2CCN(c3ccc4cnccc4c3)CC2)c1 [Compound 148] | 10 to 20 µM
Cc1ccnc(NC(=S)N2CCN(c3cccc([N+](=O)[O-])c3)CC2)c1 [Compound 5] | ≥ 20 µM
Cc1cc(C)nc(NC(=S)N2CCN(c3ccc(N4CCCC4)nn3)CC2)c1 [Compound 84] | ≥ 20 µM

Compound | IC50
Cc1cc(C)nc(NC(=S)N2CCC(C(=O)N3CCOCC3)CC2)c1 [Compound 257] | ≥ 20 µM
COc1cccc(CN2CCN(C(=S)Nc3cc(C)cc(C)n3)CC2)c1 [Compound 290] | 10 to 20 µM
Cc1cc(C)nc(NC(=S)N2CCN(c3ccc4nonc4c3)CC2)c1 [Compound 159] | ≥ 20 µM
Cc1cc(C)nc(NC(=C(C#N)C#N)N2CCN(c3cccc(C(F)(F)F)c3)CC2)c1 [Compound 96] | ≥ 20 µM
COc1cccc(NC(=S)N2CCN(c3cc(C(F)(F)F)cc(C(F)(F)F)c3)CC2)n1 [Compound 188] | < 5 µM
FC(F)(F)c1cccc(N2CCN(C(=S)Nc3cccnc3)CC2)c1 [Compound 30] | < 5 µM
COc1ccc(N2CCN(C(=S)Nc3cc(C)ccn3)CC2)cc1 [Compound 12] | ≥ 20 µM
COc1ccc(NC(=S)N2CCN(c3cccc(C(F)(F)F)c3)CC2)nc1 [Compound 37] | ≥ 20 µM
Cn1c(NC(=S)N2CCN(c3cccc(C(F)(F)F)c3)CC2)nc2ccccc21 [Compound 229] | 5 to 10 µM
Cc1cc(C)nc(NC(=S)N2CCN(c3cc(C#N)cc(C#N)c3)CC2)c1 [Compound 205] | ≥ 20 µM
S=C(Nc1cc(Cl)ccn1)N1CCN(c2ccc(Cl)cc2Cl)CC1 [Compound 199] | ≥ 20 µM
Cc1cc(C)nc(NC(=S)N2CCN(c3ccc4nncn4c3)CC2)c1 [Compound 161] | ≥ 20 µM
COc1cccc(NC(=S)N2CCN(c3cccc(C(F)(F)F)n3)CC2)n1 [Compound 194] | 5 to 10 µM
Cc1cc(C)nc(NC(=S)N2CCN(c3ccc(Cl)c(Cl)c3Cl)CC2)c1 [Compound 221] | ≥ 20 µM
FC(F)(F)c1cccc(N2CCN(C(=S)Nc3nc4ccc(C(F)(F)F)cc4[nH]3)CC2)c1 [Compound 246] | 5 to 10 µM
FC(F)(F)c1ccc(N2CCN(C(=S)Nc3ccccn3)CC2)cc1 [Compound 25] | 5 to 10 µM
Cc1ccc(N2CCN(C(=S)Nc3cc(C)ccn3)CC2)cc1 [Compound 11] | ≥ 20 µM
COc1cccc(NC(=S)N2CCN(c3ccc4ccccc4n3)CC2)n1 [Compound 196] | ≥ 20 µM
Cc1ccnc(NC(=S)N2CCN(c3ccc(Br)cc3)CC2)c1 [Compound 9] | ≥ 20 µM
Cc1cc(C)nc(NC(=S)N2CCN(c3ccc([S+](C)(=O)[O-])cc3F)CC2)c1 [Compound 109] | ≥ 20 µM
Cc1cc(C)nc(NC(=S)N2CCN(c3ccc4ccccc4c3)CC2)c1 [Compound 70] | 5 to 10 µM
Cc1cc(C)nc(NC(=S)N2CC3CN(c4ccc(Cl)cc4C(F)(F)F)CC3C2)c1 (stereo not shown) [Compound 223] | 10 to 20 µM
